Test results from patent publication US20260256134A1, “NanoEmulsion Composite Mixture of Essential Oils with Biodegradable Polymers and Co-Surfactants for Antimicrobial Activities and Enhanced Thermal Stability and Antioxidant Activities” (The American University in Cairo, priority 2022, published 2026).

How the values were obtained:
[1] = orally administered to rats; cited from earlier work
[2] = test system: Geotricum candiaum; assay: Inhibition zone method, antimicrobial activity; type: cell-based, Geotricum candidum
From the text: (§1) Inhibition zone method was followed in order to test the antimicrobial efficiency of the selected nanoemulsion composite mixture samples against 6 chosen strains of gram-positive bacterial strains, 6 strains of gram-negative bacterial strains 6 strains of fungi as shown in the following list;
(§2) The following formulae were defined: • Formula 1 (F1): Green tea essential oil • Formula 2 (F2): Chitosan solution • Formula 3 (F3): benzalkonium solution • Formula 4 (F4): control (antimicrobial compound) • Formula 5 (F5): Green tea essential oil+Chitosan solution • Formula 6 (F6): The final formula of the nanoemulsion composite mixture
(§3) Inhibition zone method was followed in order to test the antimicrobial efficiency of the 6 selected nanoemulsion composite mixture samples against 6 chosen strains of gram-positive bacterial strains, 6 strains of gram-negative bacterial strains 6 strains of fungi.

[3] = test system: MRSA; assay: Inhibition zone method, antimicrobial activity; type: cell-based, Methicillin-resistant Staphylococcus aureus (MRSA)
From the text: as §1, §2, §3

[4] = test system: Bacillus subtilis; assay: Inhibition zone method, antimicrobial activity; type: cell-based
From the text: as §1, §2, §3

[5] = test system: Fusarium moniliform; assay: Inhibition zone method, antimicrobial activity; type: cell-based
From the text: as §1, §2, §3

[6] = test system: Pseudomonas aeruginosa; assay: Inhibition zone method, antimicrobial activity; type: cell-based
From the text: as §1, §2, §3

[7] = test system: Eisherecia coli; assay: Inhibition zone method, antimicrobial activity; type: cell-based
From the text: as §1, §2, §3

[8] = test system: Candida albicans; assay: Inhibition zone method, antimicrobial activity; type: cell-based
From the text: as §1, §2, §3

[9] = test system: Aspergillus niger; assay: Inhibition zone method, antimicrobial activity; type: cell-based
From the text: as §1, §2, §3

[10] = test system: Enterobacter colacae; assay: Inhibition zone method, antimicrobial activity; type: cell-based
From the text: as §1, §2, §3

[11] = test system: Micrococcus spp.; assay: Inhibition zone method, antimicrobial activity; type: cell-based
From the text: as §1, §2, §3

[12] = test system: Klebsella pneumonia; assay: Inhibition zone method, antimicrobial activity; type: cell-based
From the text: as §1, §2, §3

[13] = test system: Enterococcus faecalis; assay: Inhibition zone method, antimicrobial activity; type: cell-based
From the text: as §1, §2, §3

[14] = test system: Aspergillus fumigatus; assay: Inhibition zone method, antimicrobial activity; type: cell-based
From the text: as §1, §2, §3

[15] = test system: Penicillium italicum; assay: Inhibition zone method, antimicrobial activity; type: cell-based
From the text: as §1, §2, §3

[16] = test system: Streptococcus mutants; assay: Inhibition zone method, antimicrobial activity; type: cell-based
From the text: as §1, §2, §3

[17] = test system: Staphylococcus aureus; assay: Inhibition zone method, antimicrobial activity; type: cell-based
From the text: as §1, §2, §3

[18] = test system: Salmonella Typhium; assay: Inhibition zone method, antimicrobial activity; type: cell-based
From the text: as §1, §2, §3

[19] = test system: Proteus vulgaris; assay: Inhibition zone method, antimicrobial activity; type: cell-based
From the text: as §1, §2, §3

| Substance | Lethal dose 50 (LD50) [1] | Antimicrobial activity expressed as % inhibition [2] | Antimicrobial activity expressed as % inhibition [3] | Antimicrobial activity expressed as % inhibition [4] | Antimicrobial activity expressed as % inhibition [5] | Antimicrobial activity expressed as % inhibition [6] | Antimicrobial activity expressed as % inhibition [7] | Antimicrobial activity expressed as % inhibition [8] | Antimicrobial activity expressed as % inhibition [9] | Antimicrobial activity expressed as % inhibition [10] | Antimicrobial activity expressed as % inhibition [11] | Antimicrobial activity expressed as % inhibition [12] | Antimicrobial activity expressed as % inhibition [13] | Antimicrobial activity expressed as % inhibition [14] | Antimicrobial activity expressed as % inhibition [15] | Antimicrobial activity expressed as % inhibition [16] | Antimicrobial activity expressed as % inhibition [17] | Antimicrobial activity expressed as % inhibition [18] | Antimicrobial activity expressed as % inhibition [19] |
| --- | --- | --- | --- | --- | --- | --- | --- | --- | --- | --- | --- | --- | --- | --- | --- | --- | --- | --- | --- |
| Benzalkonium chloride [BAC] | 234 to 525 mg/kg | – | – | – | – | – | – | – | – | – | – | – | – | – | – | – | – | – | – |
| benzalkonium [Formula F3] | – | 89% | 90% | 72% | 90% | 66% | 63% | 50% | 70% | 94% | 64% | 80% | 60% | 52% | 96% | 45% | 50% | 41% | 95% |
